From patent publication US20120142606A1, “TUMOR TARGETING PEPTIDES, THERAPEUTIC AND DIAGNOSTIC COMPOSITIONS COMPRESSING THE PEPTIDES” (priority 2009, published 2012)

Legend:
MCF7 cells [1] = experiment: Peptide binding to MCF7 breast cancer cells by flow cytometry; settings: 0.1-100 μg/ml peptide, 4° C., 20 minutes
Procedure: (§1) To assess peptide binding, MCF7 cells were incubated with increasing doses (0.1-100 μg/ml) of the BK-FITC peptide at 4° C. for 20 minutes. Cells were subsequently washed 4 times with PBS and analyzed by flow cytometry. […] Subsequently, we evaluated the specificity of the BK-peptide for breast cancer cells by incubating MCF7 cells in parallel with human peripheral blood mononuclear cells under the same conditions as mentioned above.
(§2) FIG. 2. […] MCF7 cells (left panel) and human peripheral blood mononuclear cells (PBMC) (right panel) were incubated with increasing doses of peptide for 20 min at 4° C. The cells were subsequently analyzed by flow cytometry for mean fluorescence intensity of FITC, depicted on the y-axis.

[2] = tested on: human peripheral blood mononuclear cells; experiment: Peptide binding to peripheral blood mononuclear cells by flow cytometry (specificity); settings: 0.1-100 μg/ml peptide, 4° C., 20 minutes
Procedure: as §1, §2

White blood cells (WBCs) = experiment: Killing of white blood cells (normal cell control), propidium iodide staining and flow cytometry; format: cell-based; settings: 50 μg/ml peptide, 24 h, WBCs from a healthy donor
Procedure: (§3) Next, we examined to what extent the peptide specifically kills MCF7 cells. White blood cells (WBCs) were used as a control for normal non-cancerous cells. WBCs were isolated from a healthy donor by ficoll hypaque gradient centrifugation. Red blood cells were removed using a red blood cell lysis buffer and the remaining WBCs were used for the experiment. MCF7 cells and WBCs were incubated with 50 μg/ml peptide or medium only for 24 h. Cells were collected, stained with propidium iodide (PI) and analyzed for apoptosis by flow cytometry (FIG. 3). The data was analyzed by gating on life PI negative cells which is depicted as % viable cells on the y-axis.

MCF7 cells [3] = experiment: Killing of MCF7 cells, propidium iodide staining and flow cytometry; format: cell-based; settings: 50 μg/ml peptide, 24 h
Procedure: as §3

KLAKLAKKLAKLAK-GG-LTVXPWY (SEQ ID NO:9) conjugated to fluoresceinisothiocyanate (FITC) [BK1-FITC, BK1-peptide conjugated to fluoresceinisothiocyanate]
binding to MCF7 cells, mean fluorescence intensity (MFI) of FITC (MCF7 cells [1]): dose dependent increase in mean fluorescence intensity

KLAKLAKKLAKLAK-GG-LTVXPWY [BK1-peptide]
binding to peripheral blood mononuclear cells, mean fluorescence intensity of FITC [2]: did not observe binding
killing of white blood cells (% viable cells, PI negative) (White blood cells (WBCs)): but not white blood cells
binding to MCF7 cells, mean fluorescence intensity (MFI) of FITC (MCF7 cells [1]): binds to breast cancer cells
killing of MCF7 cells (% viable cells, PI negative) (MCF7 cells [3]): kills MCF7
